Experimental data published in patent US11957783B2, “Topical immunosensitizers to treat viral and fungal infections” (Squarex, LLC, priority 2018, dated 2024).

Tested on: peripheral blood mononuclear cells (PBMC)
Assay: Cytokine and immune-function gene expression of PBMC in vitro (qRT-PCR, 41 immune-related genes)
Format: cell-based, human
Conditions: for Ratio of absolute IFNG gene expression in group A vs. Groups B + C pooled: group A day 57 after SADBE
Protocol: After a screening visit at which blood was drawn to test for IgG antibody against HSV-1 and subjects were interviewed for inclusion/exclusion criteria, selected subjects returned for blood draws on day 1. After the blood draw on day 1, subjects in group A only were dosed with SADBE. A petrolatum donut was applied with a cotton swab to form about a 1 cm diameter donut on skin on the inner aspect of the upper arm. Then a separate cotton swab was dipped in a 2% SADBE solution (w/v) in DMSO, and the swab was then used to apply about 10-20 mg of solution over about a 1 cm diameter circle within the petrolatum donut. Immediately after application, the application site was covered with TEGADERM. Subjects were advised to remove the TEGADERM and rinse and wipe the spot three hours later. The group A subjects then returned for blood draws on days 15 and 57 and were queried about adverse events on those dates.
PBMC were isolated using SepMate PBMC isolation tubes (Stem Cell Technologies, Vancouver, Canada) and Ficoll-Paque according to the manufacturer's instructions. PBMC were isolated and suspended in negative control medium at 2 million cells/ml. PBMC suspension (100 μL) was added to 100 μL of medium in quadruplicate in 96-well plates. The plates were prepared in advance and stored at −70° C. The wells were in five different conditions in quadruplicate with these final concentrations after addition of the 100 μL of PBMC suspension in negative control medium. • 1. Negative control in medium (RPMI with glutamine and pen/strep, supplemented with 10% human A/B serum). • 2. Medium plus 16 μg/ml protein from heat-inactivated HSV-1-infected Vero cell extracts. • 3. Medium plus heat-inactivated HSV-1 cell-free virus at a final 7.5 million pfu/ml. • 4. Medium plus Candida cell extract. (Greer item number M15A50, 20,000 pnu/ml allergenic extract mixed molds Candida albicans, was diluted 1/50 into medium). • 5. Positive control, medium plus 10 μg/ml concanavalin A.
Two plates were created for each subject at each collection point. One plate was incubated for 2 days at 37° C. in a humidified 5% CO2 atmosphere and then RNA was isolated from the pooled contents of the 4 wells of a given condition for a specific patient, and the RNA was stored at −70° C. and subsequently used for quantitative real time PCR analysis of gene expression of 41 immune-related genes.
As noted above, after 2 days of growth of the PBMC in a 37° C. humidified 5% CO2 incubator in a 96-well plate, four wells of a single condition (negative control, positive control, heat-inactivated HSV-1, HSV-1-infected cell extracts, or Candida extract) with cells from a single subject (200 μL in each well) were pooled, and the RNA was immediately isolated with Trizol reagent and chloroform by Qiagen RNeasy MiniElute clean up kit Qiagen cat #74204, according to manufacturer's instructions into a final volume of 13 μL, and then flash frozen on powdered dry ice, and stored at −70° C. in aliquots of 3 μL for RNA quantification and 10 μL for PCR analysis.
RNA was preamplified with the Qiagen RT2 PreAMP cDNA synthesis kit (Ref. 330451) and custom RT2 PreAmp primer mix (Ref. 330141) starting with about 50 ng RNA according to the procedure of RT preamp cDNA synthesis handbook date March 2011, pages 17-20. The amplification reactions (final 120 μL) were frozen at −70° C. and used for qPCR analysis the next day.
qPCR was done with the Qiagen RT PCR profiler gene analysis kit (catalog number 330451) using RT2 Sybr Green Rox qPCR Mastermix (24) (Part 330523) and Custom RT2 PCR array plates (Ref. 330171). For this 675 μL 2×RT2 SYBR green mastermix, 51 μL pre-AMP synthesis reaction, and 623 μL RNase free water were mixed, and then 25 μL of the mixture was added to 48 wells on the left or right half of the custom PCR plate. The PCR instrument was Applied Biosystems 7900HT fast real time PCR. […]

[1] = PBMC + Candida extract, group A day 57 vs day 1 (pre-dose), one topical 2% SADBE dose

CCCCOc1c(OCCCC)c(=O)c1=O [SADBE, 3,4-Dibutoxy-3-cyclobutene-1,2-dione]
LTA ratio of PBMC absolute gene expression day 57/day 1 (Group A, Neg. control): 0.73 | LYZ ratio of PBMC absolute gene expression day 15/day 1 (Group A, Neg. control): 1.18 | LYZ ratio of PBMC absolute gene expression day 57/day 1 (Group A, Neg. control): 0.55 | MX1 ratio of PBMC absolute gene expression day 15/day 1 (Group A, Neg. control): 0.81 | MX1 ratio of PBMC absolute gene expression day 57/day 1 (Group A, Neg. control): 0.47 | NOD1 ratio of PBMC absolute gene expression day 15/day 1 (Group A, Neg. control): 1.14 | NOD1 ratio of PBMC absolute gene expression day 57/day 1 (Group A, Neg. control): 0.87 | SPP1 ratio of PBMC absolute gene expression day 15/day 1 (Group A, Neg. control): 1.35 | SPP1 ratio of PBMC absolute gene expression day 57/day 1 (Group A, Neg. control): 2.38 | STAT1 ratio of PBMC absolute gene expression day 15/day 1 (Group A, Neg. control): 0.86 | STAT1 ratio of PBMC absolute gene expression day 57/day 1 (Group A, Neg. control): 1.29 | STAT4 ratio of PBMC absolute gene expression day 15/day 1 (Group A, Neg. control): 0.94 | STAT4 ratio of PBMC absolute gene expression day 57/day 1 (Group A, Neg. control): 0.88 | TNF ratio of PBMC absolute gene expression day 15/day 1 (Group A, Neg. control): 0.91 | TNF ratio of PBMC absolute gene expression day 57/day 1 (Group A, Neg. control): 1.15 | TNFSF10 ratio of PBMC absolute gene expression day 15/day 1 (Group A, Neg. control): 0.93 | TNFSF10 ratio of PBMC absolute gene expression day 57/day 1 (Group A, Neg. control): 1 | TNFSF13B ratio of PBMC absolute gene expression day 15/day 1 (Group A, Neg. control): 1.03 | TNFSF13B ratio of PBMC absolute gene expression day 57/day 1 (Group A, Neg. control): 0.67 | CCL2 ratio of PBMC absolute gene expression day 15/day 1 (Group A, Virus): 0.88 | CCL2 ratio of PBMC absolute gene expression day 57/day 1 (Group A, Virus): 1.71 | CCL3 ratio of PBMC absolute gene expression day 15/day 1 (Group A, Virus): 0.84 | CCL3 ratio of PBMC absolute gene expression day 57/day 1 (Group A, Virus): 3.73 | CCL7 ratio of PBMC absolute gene expression day 15/day 1 (Group A, Virus): 0.72 | CCL7 ratio of PBMC absolute gene expression day 57/day 1 (Group A, Virus): 1.81 | CCR5 ratio of PBMC absolute gene expression day 15/day 1 (Group A, Virus): 0.87 | CCR5 ratio of PBMC absolute gene expression day 57/day 1 (Group A, Virus): 1.35 | CD80 ratio of PBMC absolute gene expression day 15/day 1 (Group A, Virus): 0.79 | CD80 ratio of PBMC absolute gene expression day 57/day 1 (Group A, Virus): 1.25 | CXCL2 ratio of PBMC absolute gene expression day 15/day 1 (Group A, Virus): 0.91 | CXCL2 ratio of PBMC absolute gene expression day 57/day 1 (Group A, Virus): 1.58 | CXCL5 ratio of PBMC absolute gene expression day 15/day 1 (Group A, Virus): 0.94 | CXCL5 ratio of PBMC absolute gene expression day 57/day 1 (Group A, Virus): 2.52 | CXCL9 ratio of PBMC absolute gene expression day 15/day 1 (Group A, Virus): 1.42 | CXCL9 ratio of PBMC absolute gene expression day 57/day 1 (Group A, Virus): 2.5 | CXCL10 ratio of PBMC absolute gene expression day 15/day 1 (Group A, Virus): 0.74 | CXCL10 ratio of PBMC absolute gene expression day 57/day 1 (Group A, Virus): 1.00 | CXCL11 ratio of PBMC absolute gene expression day 15/day 1 (Group A, Virus): 0.34 | CXCL11 ratio of PBMC absolute gene expression day 57/day 1 (Group A, Virus): 0.40 | DDX58 ratio of PBMC absolute gene expression day 15/day 1 (Group A, Virus): 0.66 | DDX58 ratio of PBMC absolute gene expression day 57/day 1 (Group A, Virus): 0.95 | FOXP3 ratio of PBMC absolute gene expression day 15/day 1 (Group A, Virus): 1.27 | FOXP3 ratio of PBMC absolute gene expression day 57/day 1 (Group A, Virus): 2.46 | GATA3 ratio of PBMC absolute gene expression day 15/day 1 (Group A, Virus): 0.89 | GATA3 ratio of PBMC absolute gene expression day 57/day 1 (Group A, Virus): 0.32 | ICAM1 ratio of PBMC absolute gene expression day 15/day 1 (Group A, Virus): 1.01 | ICAM1 ratio of PBMC absolute gene expression day 57/day 1 (Group A, Virus): 1.07 | IFNA1 ratio of PBMC absolute gene expression day 15/day 1 (Group A, Virus): 0.58 | IFNA1 ratio of PBMC absolute gene expression day 57/day 1 (Group A, Virus): 1.34 | IFNB1 ratio of PBMC absolute gene expression day 15/day 1 (Group A, Virus): 0.78 | IFNB1 ratio of PBMC absolute gene expression day 57/day 1 (Group A, Virus): 0.87 | IFNG ratio of PBMC absolute gene expression day 15/day 1 (Group A, Virus): 1.91 | IFNG ratio of PBMC absolute gene expression day 57/day 1 (Group A, Virus): 11.01 | IL1B ratio of PBMC absolute gene expression day 15/day 1 (Group A, Virus): 0.77 | IL1B ratio of PBMC absolute gene expression day 57/day 1 (Group A, Virus): 5.09 | IL1R1 ratio of PBMC absolute gene expression day 15/day 1 (Group A, Virus): 0.74 | IL1R1 ratio of PBMC absolute gene expression day 57/day 1 (Group A, Virus): 0.97 | IL1RN ratio of PBMC absolute gene expression day 15/day 1 (Group A, Virus): 0.77 | IL1RN ratio of PBMC absolute gene expression day 57/day 1 (Group A, Virus): 1.48 | IL2 ratio of PBMC absolute gene expression day 15/day 1 (Group A, Virus): 1.43 | IL2 ratio of PBMC absolute gene expression day 57/day 1 (Group A, Virus): 2.11 | IL4 ratio of PBMC absolute gene expression day 15/day 1 (Group A, Virus): 0.80 | IL4 ratio of PBMC absolute gene expression day 57/day 1 (Group A, Virus): 1.32 | IL5 ratio of PBMC absolute gene expression day 15/day 1 (Group A, Virus): 0.76 | IL5 ratio of PBMC absolute gene expression day 57/day 1 (Group A, Virus): 0.56 | IL8 ratio of PBMC absolute gene expression day 15/day 1 (Group A, Virus): 1.13 | IL8 ratio of PBMC absolute gene expression day 57/day 1 (Group A, Virus): 3.3 | IL10 ratio of PBMC absolute gene expression day 15/day 1 (Group A, Virus): 0.74 | IL10 ratio of PBMC absolute gene expression day 57/day 1 (Group A, Virus): 2.29 | IL12A ratio of PBMC absolute gene expression day 15/day 1 (Group A, Virus): 0.94 | IL12A ratio of PBMC absolute gene expression day 57/day 1 (Group A, Virus): 1.48 | IL12B ratio of PBMC absolute gene expression day 15/day 1 (Group A, Virus): 0.59 | IL12B ratio of PBMC absolute gene expression day 57/day 1 (Group A, Virus): 2.08 | IL13 ratio of PBMC absolute gene expression day 15/day 1 (Group A, Virus): 1.43 | IL13 ratio of PBMC absolute gene expression day 57/day 1 (Group A, Virus): 3.02 | IL15 ratio of PBMC absolute gene expression day 15/day 1 (Group A, Virus): 1.01 | IL15 ratio of PBMC absolute gene expression day 57/day 1 (Group A, Virus): 1.54 | IL16 ratio of PBMC absolute gene expression day 15/day 1 (Group A, Virus): 0.84 | IL16 ratio of PBMC absolute gene expression day 57/day 1 (Group A, Virus): 0.82 | JAK2 ratio of PBMC absolute gene expression day 15/day 1 (Group A, Virus): 0.84 | JAK2 ratio of PBMC absolute gene expression day 57/day 1 (Group A, Virus): 1.26 | LTA ratio of PBMC absolute gene expression day 15/day 1 (Group A, Virus): 1.26 | LTA ratio of PBMC absolute gene expression day 57/day 1 (Group A, Virus): 1.84 | LYZ ratio of PBMC absolute gene expression day 15/day 1 (Group A, Virus): 1.04 | LYZ ratio of PBMC absolute gene expression day 57/day 1 (Group A, Virus): 0.53 | MX1 ratio of PBMC absolute gene expression day 15/day 1 (Group A, Virus): 0.49 | MX1 ratio of PBMC absolute gene expression day 57/day 1 (Group A, Virus): 0.66 | NOD1 ratio of PBMC absolute gene expression day 15/day 1 (Group A, Virus): 0.85 | NOD1 ratio of PBMC absolute gene expression day 57/day 1 (Group A, Virus): 1.14 | SPP1 ratio of PBMC absolute gene expression day 15/day 1 (Group A, Virus): 1.64 | SPP1 ratio of PBMC absolute gene expression day 57/day 1 (Group A, Virus): 15.29 | STAT1 ratio of PBMC absolute gene expression day 15/day 1 (Group A, Virus): 0.80 | STAT1 ratio of PBMC absolute gene expression day 57/day 1 (Group A, Virus): 1.41 | STAT4 ratio of PBMC absolute gene expression day 15/day 1 (Group A, Virus): 1.03 | STAT4 ratio of PBMC absolute gene expression day 57/day 1 (Group A, Virus): 1.69 | TNF ratio of PBMC absolute gene expression day 15/day 1 (Group A, Virus): 0.97 | TNF ratio of PBMC absolute gene expression day 57/day 1 (Group A, Virus): 1.19 | TNFSF10 ratio of PBMC absolute gene expression day 15/day 1 (Group A, Virus): 0.68 | TNFSF10 ratio of PBMC absolute gene expression day 57/day 1 (Group A, Virus): 1.01 | TNFSF13B ratio of PBMC absolute gene expression day 15/day 1 (Group A, Virus): 0.77 | TNFSF13B ratio of PBMC absolute gene expression day 57/day 1 (Group A, Virus): 1.23 | Ratio of absolute IFNG gene expression in group A vs. Groups B + C pooled (HSV-infected cell extracts): 1.896 | Ratio of absolute IFNG gene expression in group A vs. Groups B + C pooled (Neg Control medium): 1.190 | ratio of absolute expression in A57 vs. A1: CCL2 [1]: 1.16 | ratio of absolute expression in A57 vs. A1: CCL3 [1]: 1.79 | ratio of absolute expression in A57 vs. A1: CCL7 [1]: 2.03 | ratio of absolute expression in A57 vs. A1: CCR5 [1]: 1.42 | ratio of absolute expression in A57 vs. A1: CD80 [1]: 1.57 | ratio of absolute expression in A57 vs. A1: CXCL2 [1]: 1.1 | ratio of absolute expression in A57 vs. A1: CXCL5 [1]: 1.45 | ratio of absolute expression in A57 vs. A1: CXCL9 [1]: 14.21 | ratio of absolute expression in A57 vs. A1: CXCL10 [1]: 12.8 | ratio of absolute expression in A57 vs. A1: CXCL11 [1]: 2.53 | ratio of absolute expression in A57 vs. A1: DDX58 [1]: 1.29
